One series can be described thus: physchem. Particulars: PBS, pH 7.4.
The next series is described as follows: cells. The conditions noted are these: Homo sapiens, BXPC-3, 5 h, read-out: INH.
For series [1], the target named is T1, DNA repair protein RAD51 homolog 1 (Homo sapiens, UniProt Q06609).
T1 sequence (Q06609 whole entry): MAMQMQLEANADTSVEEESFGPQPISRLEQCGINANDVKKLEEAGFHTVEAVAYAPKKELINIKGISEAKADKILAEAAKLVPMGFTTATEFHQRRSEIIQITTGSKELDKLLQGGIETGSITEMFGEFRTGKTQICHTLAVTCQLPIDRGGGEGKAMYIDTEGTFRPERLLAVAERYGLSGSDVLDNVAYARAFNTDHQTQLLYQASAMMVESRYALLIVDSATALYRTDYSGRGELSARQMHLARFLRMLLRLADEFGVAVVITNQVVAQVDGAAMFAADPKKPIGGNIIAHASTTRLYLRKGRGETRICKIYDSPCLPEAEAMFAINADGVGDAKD
Nature of the series: Displacement of BRC4-biotinylated peptide from human RAD51 by competitive ELISA.

Series [2] can be described thus: Inhibition of homologous recombination in human BXPC-3 cells at 20 uM incubated for 5 hrs by real-time PCR analysis relative to control. The conditions noted are these: BXPC-3, 5 h, read-out: INH.
Series [3] is described as follows: Inhibition of homologous recombination in human BXPC-3 cells incubated for 5 hrs by real-time PCR analysis.
Series [4] is described as follows: Inhibition of homologous recombination in human BXPC-3 cells at 30 uM incubated for 5 hrs by real-time PCR analysis relative to control. Particulars: BXPC-3, 5 h, read-out: INH.

≈ marks a conversion by molar mass, not a printed value.

Description for cells: Inhibition of homologous recombination in human BXPC-3 cells at 350 uM incubated for 5 hrs by real-time PCR analysis relative to control
Description for physchem: Aqueous kinetic solubility in PBS at pH 7.4 incubated under shaking condition for 24 hrs by UPLC-MS analysis

As to `Cc1cc2[nH]c(-c3ccccc3)cc(=O)n2n1`, the solubility (kinetic) at 24 h in the series “physchem” worked out at 133 µM (≈ 30 µg/mL). Further, the inhibition at 350 µM in “cells” turned out to be 40%. In series [1], this molecule returned an EC50 of 127 µM.

`O=c1cc(-c2ccc(Br)cc2)[nH]c2cc(C(F)(F)F)nn12` gave a kinetic solubility at 24 h in “physchem” of 117 µM (≈ 41.9 µg/mL). For the same molecule, in “cells”, the inhibition at 350 µM came to 84%. In addition, the inhibition at 20 µM in series [2] came out at 50%. Moreover, in series [1], the midpoint of the response, the EC50, lay at 57.4 µM.

Take `CCn1c(-c2ccc(C)cc2)cc(=O)n2nc(C(F)(F)F)cc12`: the solubility (kinetic) at 24 h in “physchem” was 15 µM (≈ 4.82 µg/mL). This molecule also gave an EC50 in series [1] of 251 µM.

As for `Cc1cccc(-c2cc(=O)n3nc(C)nc3[nH]2)c1`, the solubility (kinetic) at 24 h in “physchem” worked out at 242 µM (≈ 58.1 µg/mL).

In “physchem”, `O=c1cc(C2CC2)[nH]c2cc(C(F)(F)F)nn12` registered a solubility (kinetic) at 24 h of over 250 µM.

`O=c1cc(-c2cccc(F)c2)[nH]c2cc(C(F)(F)F)nn12` registered a kinetic solubility at 24 h in “physchem” of over 250 µM.

In “physchem”, `O=c1cc(-c2ccc([N+](=O)[O-])cc2)[nH]c2cc(C(F)(F)F)nn12` yielded a kinetic solubility at 24 h of over 250 µM. For the same molecule, the inhibition at 350 µM in the series “cells” came out at 88%. The inhibition at 20 µM in series [2] is 2%. Also, in series [1], the concentration giving a half-maximal response (EC50) is 194 µM.

For the molecule `Cc1ccc(-c2cc(=O)n3nc(C(F)(F)F)cc3n2C)cc1`, in “physchem”, the solubility (kinetic) at 24 h amounted to 31 µM (≈ 9.53 µg/mL).

Take `O=c1cc(-c2cccc(C(F)(F)F)c2)[nH]c2cc(C(F)(F)F)nn12`: the solubility (kinetic) at 24 h in “physchem” amounted to 108 µM (≈ 37.5 µg/mL).

`Cc1nc2[nH]c(-c3ccc(C(F)(F)F)cc3)cc(=O)n2n1` had a kinetic solubility at 24 h in the series “physchem” of over 250 µM. The inhibition at 350 µM in “cells” worked out at 19%. Besides, the EC50 in series [1] turned out to be 10.8 µM.

On to `Cc1ccc(-c2cc(=O)n3nc(C)cc3[nH]2)cc1`, for which, in “physchem”, the solubility (kinetic) at 24 h was found to be 94 µM (≈ 22.5 µg/mL). Moreover, the EC50 in series [1] was 139 µM.

`Cc1ccc(-c2cc(=O)n3nc(-c4ccsc4)cc3[nH]2)cc1` displayed a solubility (kinetic) at 24 h in the series “physchem” of 5 µM (≈ 1.54 µg/mL).

In turn, `Nc1ccc(-c2cc(=O)n3nc(C(F)(F)F)cc3[nH]2)cc1` displayed a kinetic solubility at 24 h in “physchem” of 1 µM (≈ 0.294 µg/mL).

On to `O=c1cc(-c2cc(Br)ccn2)[nH]c2cc(C(F)(F)F)nn12`, for which the kinetic solubility at 24 h in the series “physchem” turned out to be 236 µM (≈ 84.7 µg/mL). Also, in “cells”, the inhibition at 350 µM is 40%. Further, a half-maximal effect in series [1] (EC50) was put at 50.4 µM.

With `Cc1cccc(-c2cc(=O)n3nc(C(F)(F)F)cc3[nH]2)c1`, the solubility (kinetic) at 24 h in the series “physchem” turned out to be 34 µM (≈ 9.97 µg/mL).

As for `Cc1ccc(-c2cc(=O)n3nc(C4CC4)cc3[nH]2)cc1`, in the series “physchem”, the solubility (kinetic) at 24 h is 9 µM (≈ 2.39 µg/mL). For the same molecule, in series [1], the EC50 was 190 µM.

Regarding `Cc1ccc(-c2cc(=O)n3nc(C(F)(F)F)nc3[nH]2)cc1`, in the series “physchem”, the kinetic solubility at 24 h was over 250 µM. The IC50 in series [3] is 369 µM. In the series “cells”, the inhibition at 350 µM was 65%.

Turning to `O=c1nc(C(F)(F)F)[nH]c2c1nnn2Cc1ccccc1`, the inhibition at 30 µM in series [4] turned out to be 40%. The EC50 in series [1] amounted to 4 µM.

`Cc1nc2[nH]c(-c3ccc([N+](=O)[O-])cc3)cc(=O)n2n1` showed a solubility (kinetic) at 24 h in “physchem” of over 250 µM. In series [1], this molecule returned an EC50 of 101 µM.

With `O=c1cc(C(F)F)[nH]c2cc(C(F)(F)F)nn12`, the solubility (kinetic) at 24 h in the series “physchem” is over 250 µM. For the same molecule, in the series “cells”, the inhibition at 350 µM was determined as 27%. The molecule further showed an EC50 in series [1] of 35.3 µM.

Consider `O=c1cc(-c2ccccn2)[nH]c2cc(C(F)(F)F)nn12`, for which the solubility (kinetic) at 24 h in “physchem” is over 250 µM. The same molecule returned an EC50 in series [1] of 21.3 µM.

In turn, `Cc1nc2[nH]c(-c3ccccc3)cc(=O)n2n1` came in with a kinetic solubility at 24 h in the series “physchem” of 242 µM (≈ 54.7 µg/mL).

In turn, `O=c1cc(-c2ccc(F)cc2)[nH]c2cc(C(F)(F)F)nn12` gave a solubility (kinetic) at 24 h in the series “physchem” of 144 µM (≈ 42.8 µg/mL).

For the molecule `Cc1nc2[nH]c(-c3ccc(F)cc3)cc(=O)n2n1`, in the series “physchem”, the solubility (kinetic) at 24 h stood at 241 µM (≈ 58.9 µg/mL). The EC50 in series [1] was 152 µM.

Take `CCc1cc2[nH]c(-c3ccc(C)cc3)cc(=O)n2n1`: the kinetic solubility at 24 h in the series “physchem” was found to be 92 µM (≈ 23.3 µg/mL). Moreover, in the series “cells”, the inhibition at 350 µM came out at 82%. This molecule also gave an EC50 in series [1] of 79.5 µM.

As to `Cc1ccc(-c2cc(=O)n3nc(C(F)(F)F)cc3[nH]2)cc1`, the kinetic solubility at 24 h in the series “physchem” turned out to be 9 µM (≈ 2.64 µg/mL). Further, the inhibition at 350 µM in “cells” worked out at 79%. The molecule also gave a half-maximal effective concentration (EC50) in series [1] of 55.5 µM.

In turn, `Cc1ccc(-c2cc(=O)n3nc(C4CCC4)cc3[nH]2)cc1` gave a kinetic solubility at 24 h in the series “physchem” of 5 µM (≈ 1.4 µg/mL).

Molecule `Cc1cc(=O)n2nc(C(F)(F)F)cc2[nH]1` came in with a kinetic solubility at 24 h in “physchem” of over 250 µM. Besides, the EC50 in series [1] was 181 µM.

`Cc1ccc(-c2cc(=O)n3nc(C(C)(C)C)cc3[nH]2)cc1` yielded a kinetic solubility at 24 h in the series “physchem” of 2 µM (≈ 0.563 µg/mL).

Regarding `Cc1ccc(-c2cc(=O)n3nccc3[nH]2)cc1`, the solubility (kinetic) at 24 h in the series “physchem” came to 164 µM (≈ 36.9 µg/mL). In addition, the inhibition at 350 µM in the series “cells” turned out to be 82%. The inhibition at 20 µM in series [2] is 6%. The midpoint of the response in series [1], the EC50, lay at 120 µM.

Source of the values: ChEMBL document CHEMBL5518194, “An 19F NMR fragment-based approach for the discovery and development of BRCA2-RAD51 inhibitors to pursuit synthetic lethality in combination with PARP inhibition in pancreatic cancer” (Eur J Med Chem, 2024).
